Tests used:
Type in all cases: physicochemical
[1] = Water sorption and desorption, automated vapor sorption analyzer
Description: Water sorption and desorption studies were conducted on automated vapor sorption analyzer (TA instruments Q5000 SA). The microbalance was calibrated using a 100 mg standard weight. The relative humidity sensor was calibrated at 5.0, 11.3, 32.8, 52.8, 75.3, and 84.3% RH (25° C.) using saturated salt solutions. Approximately 30 mg of the powder sample was placed in the quartz sample holder and dried at ≤3% relative humidity (RH) at 25° C. The attainment of equilibrium was assumed when the weight change of the sample was <0.001 wt % in 5 min or by a maximum equilibration time of 120 minutes. […] The attainment of equilibrium was again assumed when the weight change of the sample was <0.001 wt % in 5 min or by a maximum equilibration time of 120 minutes. The weight gain at each of the % RH steps is based on the weight after the initial drying step. The data were analyzed using Universal Analysis software V4.5A.

[2] = Solid-state chemical stability (long term and accelerated storage), total impurities by HPLC
Description: The chemical stability of PF-06873600 anhydrous free base (Form 1) was investigated at long term storage conditions (25° C./60% RH) for an extended time period and under accelerated stability conditions (40° C./75% RH) for a shorter period. Stability testing was conducted at 25° C./60% RH for 24 months (long term conditions) and at 40° C./75% RH for 6 months (accelerated conditions) and evaluated for appearance and purity by HPLC.
(§1) Stability samples of drug substance were packaged in double low-density polyethylene (LDPE) bags and desiccant within high-density polyethylene (HDPE) drum. Photostability samples were stored in a quartz Petri dish with a quartz lid.

[3] = Photostability study under ICH conditions, light source option 2; settings: for Total impurities: ICH photostability
Description: A photostability study was run under ICH conditions using light source option 2 ICH conditions.
as §1

In the case of C[C@@]1(O)CCC[C@H]1n1c(=O)c(C(F)F)cc2cnc(NC3CCN(S(C)(=O)=O)CC3)nc21 [PF-06873600 free base (Form 1), 6-(difluoromethyl)-8-[(1R,2R)-2-hydroxy-2-methylcyclopentyl]-2-{[1-(methylsulfonyl)piperidin-4-yl]amino}-pyrido[2,3-d]pyrimidin-7(8H)-one], the “Water Content, Desorption” value ([1]; 25° C., 10% RH) was −0.12 % w/w, the “Water Content, Sorption” value ([1]; 25° C., 10% RH) was 0.00 % w/w and the “Water Content, Desorption” value ([1]; 25° C., 20% RH) was −0.1 % w/w. For the same compound, the “Water Content, Sorption” value ([1]; 25° C., 20% RH) was 0.02 % w/w, the “Water Content, Desorption” value ([1]; 25° C., 30% RH) was −0.07 % w/w and the “Water Content, Sorption” value ([1]; 25° C., 30% RH) was 0.04 % w/w. The “Water Content, Desorption” value ([1]; 25° C., 40% RH) was −0.06 % w/w, the “Water Content, Sorption” value ([1]; 25° C., 40% RH) was 0.06 % w/w and the “Water Content, Desorption” value ([1]; 25° C., 50% RH) was −0.04 % w/w. The “Water Content, Sorption” value ([1]; 25° C., 50% RH) was 0.07 % w/w, the “Water Content, Desorption” value ([1]; 25° C., 60% RH) was −0.03 % w/w and the “Water Content, Sorption” value ([1]; 25° C., 60% RH) was 0.07 % w/w. The “Water Content, Desorption” value ([1]; 25° C., 70% RH) was −0.01 % w/w, the “Water Content, Sorption” value ([1]; 25° C., 70% RH) was 0.08 % w/w and the “Water Content, Desorption” value ([1]; 25° C., 80% RH) was 0.02 % w/w. For the same compound, the “Water Content, Sorption” value ([1]; 25° C., 80% RH) was 0.08 % w/w, the “Water Content, Desorption” value ([1]; 25° C., 90% RH) was 0.04 % w/w and the “Water Content, Sorption” value ([1]; 25° C., 90% RH) was 0.04 % w/w. For the same compound, the “Change in solid form” value ([1]; after the water sorption study) was “no change in solid form”, the Weight gain ([1]; up to 90% RH) was “no significant weight gain” and the Hygroscopicity ([1]; water sorption study, 25° C.) was “not hygroscopic”. The Total impurities ([2]; 25° C./60% RH, 3 mos.) was 0.49%, the Total impurities ([2]; 25° C./60% RH, 6 mos.) was 0.48% and the Total impurities ([2]; 25° C./60% RH, 12 mos.) was 0.51%. The Total impurities ([2]; 25° C./60% RH, 24 mos.) was 0.59%, the Total impurities ([2]; 25° C./60% RH, Initial) was 0.5% and the Total impurities ([2]; 40° C./75% RH, 3 mos.) was 0.47%. It also gave a Total impurities ([2]; 40° C./75% RH, 6 mos.) of 0.47%, a Total impurities ([2]; 40° C./75% RH, Initial) of 0.5% and a Total impurities ([3]; light source option 2, 8 days) of 0.64%. The Total impurities ([3]; light source option 2, Initial) was 0.58% and the “Appearance after photostability exposure” value ([3]; samples directly exposed to UV/Fluorescent conditions) was “change in appearance from an off-white powder to a pale-colored powder”.

From patent publication US20220127262A1, “CRYSTALLINE FORM OF A CDK INHIBITOR” (Pfizer Inc., priority 2019, published 2022)
